Experimental data from EP4467141A1, “PYRAZOLO-QUINOLINES AS SELECTIVE INHIBITORS OF GENOTOXIC STRESS-INDUCED IKK/NF- KB PATHWAYS FOR CANCER THERAPY” (Max-Delbrück-Centrum für Molekulare Medizin in der …, priority 2023, dated 2024).

Key:
Test in all cases: Kinase panel study
Assay type in all cases: biochemical
Conditions in all cases: read-out: Percentage of inhibition; for inhibition at 1 µM: 1000nM; for inhibition at 10 µM: 10000nM
BMX = molecular target: T1, BMX (Homo sapiens, UniProt P51813)
T1 construct: purchased Thermo Fisher Scientific
T1 sequence (P51813 1-675): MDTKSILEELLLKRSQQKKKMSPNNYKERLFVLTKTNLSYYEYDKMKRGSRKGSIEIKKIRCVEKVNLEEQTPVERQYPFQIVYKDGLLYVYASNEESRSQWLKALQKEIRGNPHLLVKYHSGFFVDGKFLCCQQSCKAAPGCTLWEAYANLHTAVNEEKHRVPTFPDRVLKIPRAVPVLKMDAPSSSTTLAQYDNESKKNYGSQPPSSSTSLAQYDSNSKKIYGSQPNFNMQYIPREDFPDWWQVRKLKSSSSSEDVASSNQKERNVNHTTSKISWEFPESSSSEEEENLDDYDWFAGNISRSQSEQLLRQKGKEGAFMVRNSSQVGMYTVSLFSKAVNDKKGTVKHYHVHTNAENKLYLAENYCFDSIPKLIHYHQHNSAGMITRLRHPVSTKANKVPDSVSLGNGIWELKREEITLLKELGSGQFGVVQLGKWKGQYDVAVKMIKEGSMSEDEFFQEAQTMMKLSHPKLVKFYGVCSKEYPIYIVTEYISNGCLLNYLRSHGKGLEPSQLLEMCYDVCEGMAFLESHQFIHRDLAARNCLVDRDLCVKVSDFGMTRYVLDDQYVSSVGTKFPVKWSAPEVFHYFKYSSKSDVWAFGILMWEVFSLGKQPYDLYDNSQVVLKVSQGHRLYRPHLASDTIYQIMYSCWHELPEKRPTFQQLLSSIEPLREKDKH
Procedure, shortened: (§1)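 Compounds were tested in vitro against the kinase panel by a service lab. Assays followed standard ZLyte or Adapta protocols. Activity was recorded as % inhibition at 10 µM or 1 µM, with IC50 values where determined.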

LRRK2 R1441C = molecular target: T2, LRRK2 R1441C (Homo sapiens, UniProt Q5S007, R1441C)
T2 construct: purchased Thermo Fisher Scientific
Procedure, shortened: as §1

[1] = molecular target: T3, PIK3CA E542K/PIK3R1 (p11 0 alpha E542K/p85 alpha) (Homo sapiens, UniProt P42336, E542K)
T3 construct: purchased Thermo Fisher Scientific
Procedure, shortened: as §1

EPHB2 = molecular target: T4, EPHB2 (Homo sapiens, UniProt P29323)
T4 construct: purchased Thermo Fisher Scientific
T4 sequence (P29323 19-1055): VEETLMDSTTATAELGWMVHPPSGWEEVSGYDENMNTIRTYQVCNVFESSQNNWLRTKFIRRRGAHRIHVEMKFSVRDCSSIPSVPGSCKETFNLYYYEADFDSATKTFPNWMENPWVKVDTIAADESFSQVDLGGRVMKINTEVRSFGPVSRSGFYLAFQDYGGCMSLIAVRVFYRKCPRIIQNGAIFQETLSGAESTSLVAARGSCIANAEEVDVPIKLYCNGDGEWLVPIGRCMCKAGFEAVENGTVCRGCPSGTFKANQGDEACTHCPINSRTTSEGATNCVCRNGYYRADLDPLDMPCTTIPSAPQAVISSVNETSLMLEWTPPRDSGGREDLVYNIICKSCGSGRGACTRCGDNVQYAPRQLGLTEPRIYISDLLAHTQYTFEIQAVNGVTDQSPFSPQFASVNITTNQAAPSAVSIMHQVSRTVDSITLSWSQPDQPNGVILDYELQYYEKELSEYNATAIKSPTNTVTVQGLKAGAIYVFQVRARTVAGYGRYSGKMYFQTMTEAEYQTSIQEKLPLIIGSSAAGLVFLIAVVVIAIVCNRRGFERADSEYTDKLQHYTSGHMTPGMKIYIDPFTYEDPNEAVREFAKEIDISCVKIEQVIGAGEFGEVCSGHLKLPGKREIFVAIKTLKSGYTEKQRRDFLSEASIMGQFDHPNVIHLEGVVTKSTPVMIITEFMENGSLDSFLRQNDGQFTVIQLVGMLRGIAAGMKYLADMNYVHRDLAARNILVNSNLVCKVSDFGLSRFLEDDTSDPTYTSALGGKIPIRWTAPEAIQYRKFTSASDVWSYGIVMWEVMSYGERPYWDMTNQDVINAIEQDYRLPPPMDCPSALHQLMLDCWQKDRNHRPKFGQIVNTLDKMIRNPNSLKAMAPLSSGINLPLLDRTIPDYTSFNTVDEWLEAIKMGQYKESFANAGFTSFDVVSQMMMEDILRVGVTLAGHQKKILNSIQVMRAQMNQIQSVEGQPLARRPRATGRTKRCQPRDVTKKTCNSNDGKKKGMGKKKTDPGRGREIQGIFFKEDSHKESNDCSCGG
Procedure, shortened: as §1

LRRK2 G2019S FL = molecular target: T5, LRRK2 G2019S FL (Homo sapiens, UniProt Q5S007, G2019S)
T5 construct: LRRK2 G2019S FL; purchased Thermo Fisher Scientific
Procedure, shortened: as §1

STK25 (YSK1) = molecular target: T6, STK25 (YSK1) (Homo sapiens, UniProt O00506)
T6 construct: purchased Thermo Fisher Scientific
Procedure, shortened: as §1

SRC = molecular target: T7, SRC (Homo sapiens, UniProt P12931)
T7 construct: purchased Thermo Fisher Scientific
Procedure, shortened: as §1

T6 sequence (O00506 whole entry): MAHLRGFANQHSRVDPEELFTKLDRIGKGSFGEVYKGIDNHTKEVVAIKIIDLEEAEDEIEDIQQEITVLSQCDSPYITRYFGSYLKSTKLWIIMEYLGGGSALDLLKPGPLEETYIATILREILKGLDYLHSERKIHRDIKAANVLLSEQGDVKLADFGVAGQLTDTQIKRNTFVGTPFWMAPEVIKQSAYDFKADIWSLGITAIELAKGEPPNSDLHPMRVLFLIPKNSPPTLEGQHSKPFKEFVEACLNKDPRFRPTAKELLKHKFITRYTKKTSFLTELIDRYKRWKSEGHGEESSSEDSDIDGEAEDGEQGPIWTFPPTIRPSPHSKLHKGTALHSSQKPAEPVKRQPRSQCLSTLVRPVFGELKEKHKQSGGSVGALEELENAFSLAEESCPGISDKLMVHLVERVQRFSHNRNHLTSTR
T7 sequence (P12931 whole entry): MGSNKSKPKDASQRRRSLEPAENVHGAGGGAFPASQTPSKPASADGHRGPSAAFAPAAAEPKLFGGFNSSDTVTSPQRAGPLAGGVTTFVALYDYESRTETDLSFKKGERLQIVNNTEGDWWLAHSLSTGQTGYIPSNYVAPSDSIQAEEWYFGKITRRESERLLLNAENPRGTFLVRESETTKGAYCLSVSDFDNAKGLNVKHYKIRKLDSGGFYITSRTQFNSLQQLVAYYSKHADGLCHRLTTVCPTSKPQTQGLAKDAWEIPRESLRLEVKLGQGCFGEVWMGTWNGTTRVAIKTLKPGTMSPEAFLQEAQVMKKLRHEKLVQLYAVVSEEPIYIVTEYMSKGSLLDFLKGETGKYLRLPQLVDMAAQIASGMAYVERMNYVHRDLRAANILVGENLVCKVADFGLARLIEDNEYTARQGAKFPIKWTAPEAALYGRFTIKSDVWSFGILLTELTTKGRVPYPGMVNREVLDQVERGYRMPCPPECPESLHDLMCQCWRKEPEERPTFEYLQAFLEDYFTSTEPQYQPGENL
T2 sequence (Q5S007 970-2527 R1441C limits assumed): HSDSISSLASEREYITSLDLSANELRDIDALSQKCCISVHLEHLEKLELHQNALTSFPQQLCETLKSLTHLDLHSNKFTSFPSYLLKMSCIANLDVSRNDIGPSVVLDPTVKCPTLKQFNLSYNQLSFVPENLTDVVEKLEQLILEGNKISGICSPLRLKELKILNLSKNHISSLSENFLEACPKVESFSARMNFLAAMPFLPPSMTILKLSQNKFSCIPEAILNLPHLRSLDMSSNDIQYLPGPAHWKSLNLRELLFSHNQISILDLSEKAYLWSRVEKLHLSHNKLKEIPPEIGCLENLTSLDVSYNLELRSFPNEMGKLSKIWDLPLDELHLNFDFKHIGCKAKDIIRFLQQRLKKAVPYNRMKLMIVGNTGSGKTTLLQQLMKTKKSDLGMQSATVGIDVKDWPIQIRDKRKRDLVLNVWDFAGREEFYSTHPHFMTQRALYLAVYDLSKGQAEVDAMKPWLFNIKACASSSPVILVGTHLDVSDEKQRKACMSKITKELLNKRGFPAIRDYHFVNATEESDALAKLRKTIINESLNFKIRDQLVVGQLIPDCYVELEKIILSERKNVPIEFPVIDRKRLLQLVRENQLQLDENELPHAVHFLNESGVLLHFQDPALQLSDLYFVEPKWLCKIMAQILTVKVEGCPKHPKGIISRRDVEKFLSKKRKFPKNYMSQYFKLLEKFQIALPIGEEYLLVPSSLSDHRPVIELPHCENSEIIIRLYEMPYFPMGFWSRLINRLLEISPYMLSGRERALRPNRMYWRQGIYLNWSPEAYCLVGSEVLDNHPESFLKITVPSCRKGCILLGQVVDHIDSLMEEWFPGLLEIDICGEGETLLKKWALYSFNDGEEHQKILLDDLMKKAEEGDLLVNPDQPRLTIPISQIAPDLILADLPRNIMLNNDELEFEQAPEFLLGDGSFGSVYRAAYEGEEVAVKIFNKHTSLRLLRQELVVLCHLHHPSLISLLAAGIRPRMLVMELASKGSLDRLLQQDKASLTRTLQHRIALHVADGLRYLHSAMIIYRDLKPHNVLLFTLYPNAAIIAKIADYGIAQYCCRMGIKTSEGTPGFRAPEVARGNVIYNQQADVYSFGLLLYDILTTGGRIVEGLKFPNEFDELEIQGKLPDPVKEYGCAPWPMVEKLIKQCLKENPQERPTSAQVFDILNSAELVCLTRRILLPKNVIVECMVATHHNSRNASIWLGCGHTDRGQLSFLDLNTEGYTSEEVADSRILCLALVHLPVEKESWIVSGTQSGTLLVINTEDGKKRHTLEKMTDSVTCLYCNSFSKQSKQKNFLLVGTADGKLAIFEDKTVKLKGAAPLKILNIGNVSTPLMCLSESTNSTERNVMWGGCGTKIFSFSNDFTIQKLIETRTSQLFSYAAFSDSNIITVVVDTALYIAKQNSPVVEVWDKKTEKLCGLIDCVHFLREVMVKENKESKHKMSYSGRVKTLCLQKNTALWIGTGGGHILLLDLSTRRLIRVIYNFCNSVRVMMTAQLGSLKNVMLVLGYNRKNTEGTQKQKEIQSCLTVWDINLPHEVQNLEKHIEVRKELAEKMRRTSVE
T3 sequence (P42336 whole entry E542K): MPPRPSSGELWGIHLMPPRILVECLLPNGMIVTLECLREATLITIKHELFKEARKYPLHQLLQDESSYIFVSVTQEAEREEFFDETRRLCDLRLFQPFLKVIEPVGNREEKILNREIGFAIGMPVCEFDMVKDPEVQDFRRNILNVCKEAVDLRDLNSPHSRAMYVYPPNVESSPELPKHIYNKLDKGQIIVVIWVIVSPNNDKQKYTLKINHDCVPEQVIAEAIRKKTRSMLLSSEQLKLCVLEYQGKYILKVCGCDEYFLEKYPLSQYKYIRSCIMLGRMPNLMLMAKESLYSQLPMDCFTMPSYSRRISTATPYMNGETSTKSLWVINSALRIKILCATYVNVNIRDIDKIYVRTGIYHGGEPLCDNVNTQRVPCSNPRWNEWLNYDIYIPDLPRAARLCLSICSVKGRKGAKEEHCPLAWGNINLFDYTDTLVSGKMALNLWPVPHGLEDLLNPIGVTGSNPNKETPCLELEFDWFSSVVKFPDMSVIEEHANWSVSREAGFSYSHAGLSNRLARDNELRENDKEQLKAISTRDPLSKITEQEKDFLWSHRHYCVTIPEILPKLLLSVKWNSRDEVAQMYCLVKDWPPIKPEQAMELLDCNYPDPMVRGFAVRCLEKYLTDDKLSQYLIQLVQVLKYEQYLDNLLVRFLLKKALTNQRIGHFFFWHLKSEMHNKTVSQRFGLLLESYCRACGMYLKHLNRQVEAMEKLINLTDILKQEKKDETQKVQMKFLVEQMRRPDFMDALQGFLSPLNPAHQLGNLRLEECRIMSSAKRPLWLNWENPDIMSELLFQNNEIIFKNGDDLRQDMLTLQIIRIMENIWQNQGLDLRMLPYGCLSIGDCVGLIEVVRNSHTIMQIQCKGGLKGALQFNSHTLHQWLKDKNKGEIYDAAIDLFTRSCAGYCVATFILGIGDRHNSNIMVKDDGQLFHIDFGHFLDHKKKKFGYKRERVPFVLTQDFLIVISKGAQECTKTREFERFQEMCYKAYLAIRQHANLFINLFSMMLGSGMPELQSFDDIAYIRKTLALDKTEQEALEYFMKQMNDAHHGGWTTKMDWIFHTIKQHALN
T3 sequence (P27986 whole entry partner): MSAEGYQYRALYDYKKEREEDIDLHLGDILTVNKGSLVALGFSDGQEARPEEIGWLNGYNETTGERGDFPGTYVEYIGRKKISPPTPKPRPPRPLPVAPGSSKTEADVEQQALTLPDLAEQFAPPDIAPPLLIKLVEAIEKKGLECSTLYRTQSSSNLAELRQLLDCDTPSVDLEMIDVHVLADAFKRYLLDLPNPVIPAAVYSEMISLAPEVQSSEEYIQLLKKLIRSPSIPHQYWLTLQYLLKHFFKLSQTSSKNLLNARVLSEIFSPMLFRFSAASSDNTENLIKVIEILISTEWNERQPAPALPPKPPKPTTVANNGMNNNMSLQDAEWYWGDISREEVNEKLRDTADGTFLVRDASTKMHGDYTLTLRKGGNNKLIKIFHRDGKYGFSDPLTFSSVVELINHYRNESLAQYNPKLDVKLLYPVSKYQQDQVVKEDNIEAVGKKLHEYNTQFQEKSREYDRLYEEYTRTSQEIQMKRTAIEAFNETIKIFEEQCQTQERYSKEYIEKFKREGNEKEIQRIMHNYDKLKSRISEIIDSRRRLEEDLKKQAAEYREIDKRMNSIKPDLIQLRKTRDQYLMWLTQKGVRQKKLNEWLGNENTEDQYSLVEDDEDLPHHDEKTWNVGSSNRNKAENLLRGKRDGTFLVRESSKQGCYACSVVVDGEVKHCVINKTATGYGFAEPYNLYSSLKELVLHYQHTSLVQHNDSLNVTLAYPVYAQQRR

COc1ccc2c(c1OC)c(=O)n1c3ccc(O)cc3c3ccnc2c31 [MW01, 5-Hydroxy-10,11-dimethoxy-9H-benzo[c]indolo[3,2,1-ij][1,5]naphthyridin-9-one]
inhibition at 1 µM (BMX): -8% | inhibition at 10 µM (BMX): 6% | inhibition at 1 µM (LRRK2 R1441C): 83% | inhibition at 10 µM (LRRK2 R1441C): 86% | inhibition at 1 µM [1]: 94% | inhibition at 10 µM [1]: 96% | inhibition at 1 µM (EPHB2): 10% | inhibition at 10 µM (EPHB2): 17% | inhibition at 1 µM (LRRK2 G2019S FL): 87% | inhibition at 10 µM (LRRK2 G2019S FL): 90% | inhibition at 1 µM (STK25 (YSK1)): -9% | inhibition at 10 µM (STK25 (YSK1)): -3% | inhibition at 1 µM (SRC): 0% | inhibition at 10 µM (SRC): 16%

COc1ccc2cc3c(N)nn(C(=O)c4cccc(N(C)C)c4)c3nc2c1 [MW05, (3-Amino-7-methoxypyrazolo[3,4-b]quinolin-1-yl)-[3-(dimethylamino)phenyl]methanone]
inhibition at 1 µM (BMX): -10% | inhibition at 10 µM (BMX): 4% | inhibition at 1 µM (LRRK2 R1441C): -2% | inhibition at 10 µM (LRRK2 R1441C): 3% | inhibition at 1 µM [1]: 22% | inhibition at 10 µM [1]: 68% | inhibition at 1 µM (EPHB2): 6% | inhibition at 10 µM (EPHB2): 1% | inhibition at 1 µM (LRRK2 G2019S FL): -1% | inhibition at 10 µM (LRRK2 G2019S FL): 11% | inhibition at 1 µM (STK25 (YSK1)): -3% | inhibition at 10 µM (STK25 (YSK1)): -11% | inhibition at 1 µM (SRC): 6% | inhibition at 10 µM (SRC): 3%
